Experimental data taken from a melting point compilation (Tetko et al.; mined from patent text by program, amines drawn as free bases though some values may be those of a salt).

Compound | melting point [°C]
Cc1nc(N)sc1-c1ccnc(Nc2ccc3c(c2)OCO3)n1 | 211 to 213
C=C(C)OC(=O)N1c2cc(Cl)ccc2NC(=S)[C@@H]1C | 148 to 150
COc1cc2cnnc(Cl)c2cc1OC | 195 to 197
Cc1cc(Nc2cc(-c3c(C)cccc3C)nc(Sc3ccc4ccccc4c3)n2)[nH]n1 | 148 to 152
CC(CNc1ccc(Cl)cc1[N+](=O)[O-])SC#N (configuration not stated) | 69 to 70
O=C1NC(=S)SC1=Cc1cccc(Cl)c1Cl | 203 to 204
O=C1c2cccc([N+](=O)[O-])c2C(=O)N1CCCCN1C(=O)c2cccc([N+](=O)[O-])c2C1=O | 245
CCOC(=S)N[C@@H](C)C(=O)O | 74 to 78
CCOC(=O)C(N)C=C(CCCCCCN)CP(=O)(O)O (configuration not stated) | 194
CCOC(=O)c1c(Cl)[nH]c(=O)c(I)c1Oc1cc(C)cc(C)c1 | 180 to 182
CC1CCC(c2ccc(Cl)c(Cl)c2)=NN1S(=O)(=O)c1ccc(I)cc1 (configuration not stated) | 194 to 196
Clc1ccc(-c2nc(CCCCCc3nnn[nH]3)oc2-c2ccc(Cl)cc2)cc1 | 100
CC1(C(=O)O)COC2(CC3CCC2(C)C3(C)C)OC1 (configuration not stated) | 172 to 175
CC(S(=O)(=O)c1ccc(OC(F)(F)F)cc1)S(=O)(=O)C(F)(F)F (configuration not stated) | 77 to 80
COc1cc(OC)c(C2CCN(C)CC2O)c(O)c1C(C)=O (configuration not stated) | 216
O=C(O)c1cnn(-c2ccc(F)cc2)c1Cl | 230 to 231
C=CCOc1ccnc2c([N+](=O)[O-])cccc12 | 127
COc1cc2c(c(OC)c1OC)C(C#N)N(C(=O)c1ccccc1)C=C2 (configuration not stated) | 158 to 160
COc1ccc(/C=C/c2nc3c([nH]2)c(=O)n(C)c(=O)n3C)c(OC)c1 | > 280
CC(=Cc1ccc(OCc2cccc(Cl)c2)cc1)[N+](=O)[O-] | 117 to 118
Cc1ccc(NC(=O)C(C)(C)C)c(-c2cncc(Cl)n2)c1 | 80 to 83
CNC(=O)C(C)Oc1ncn(-c2ccc(C(F)(F)F)cc2)n1 (configuration not stated) | 157 to 158
CCc1nc(C)cn1C(=O)c1c(Cl)cccc1[N+](=O)[O-] | 116 to 118
O=C1Nc2ccc(S(=O)(=O)N3CCCC3)cc2C1=O | 200 to 201
C=C1C[C@@H]2[C@H](CC[C@]3(C)C(=O)CC[C@@H]23)[C@@]2(C)CCC(=O)C=C12 | 155 to 160

Compound | melting point [°C]
CCOC(=O)c1c(C(F)(F)F)nc(C(F)F)c(CO)c1CC | 59.5 to 60.5
CCN(CC)c1ccc(NC(=O)N(C[C@H]2CC[C@H](CN(C(=O)Nc3ccc(N(CC)CC)cc3)C3CCCCCC3)CC2)C2CCCCCC2)cc1 | 170 to 175
O=C(c1ccn2c1CSC2c1cccnc1)c1c[nH]c2ccccc12 (configuration not stated) | 237 to 238
O=C1c2ccccc2S(=O)(=O)N1CF | 96 to 98
CC(=O)OC(CF)c1ccccc1S(N)(=O)=O (configuration not stated) | 122 to 124
COC(=O)[C@@H]1COC(c2ncn3c2CN(C)C(=O)c2ccccc2-3)=N1 | 190 to 192
C=C1C(=C)C2OC1C1=C2CC2C(O)C=CC(=O)C2C1 (configuration not stated) | 110
CCOC(=O)c1ccc(-c2ccc(F)cc2)cc1-c1ccc(OC)c(OC)c1 | 127
O=C(c1ccc(F)cc1)c1ccc(Br)nc1 | 97 to 98
CCOC(=O)c1ccc(S(=O)(=O)C(C)(C)C)cc1Cl | 82.4 to 83
CC(C)Nc1cc(Cl)nnc1NN | 132 to 135
O=C(Nc1ccc(-n2nc(C(F)(F)F)cc2C(F)(F)F)cc1)c1cccnc1F | 110 to 112
O=C(c1ccc(F)cc1)c1ccc(Br)cc1 | 106 to 107
CCOC(=O)c1noc(C2CC2)c1C(=O)c1ccc(Br)cc1CSC | 42 to 43
CCCNC(=S)Nc1ccc(Oc2nc(OC)cc(OC)n2)c(C(=O)OC)n1 | 218 to 220
CCCCCCCCCCCCCCCCCCNC(=O)OCC(CNS(=O)(=O)CCCCl)NC(=O)OC (configuration not stated) | 99 to 101
CCCc1[nH]c2cc(C(=O)OC)ccc2c1C(=O)C=C(C)C | 146 to 147
CCCCCCCCCCCCCCCCCCOc1ccc(C(=O)C(=O)O)cc1 | 78 to 80
COc1ccc(C=O)c(OC)c1Br | 80
COc1ccccc1C(Nc1cc(Cl)c(Cl)cc1Cl)C(=O)O (configuration not stated) | 188
Cc1cc2sc3ncc(C(=O)Nc4nnn[nH]4)c(=O)n3c2cc1C | > 300
CCc1nc(-c2cccc(C#N)c2)c(-c2ccnc(N)c2)s1 | 178 to 179
CC(CCc1nnn[nH]1)Cc1ccc(OCc2ccc3ccccc3n2)cc1 (configuration not stated) | 75 to 77
Nc1nc(O)c2c(n1)NCC(CCc1nc(C(=O)N[C@@H](CCC(=O)O)C(=O)O)cs1)C2 (some centres not stated) | 210 to 212

The remaining lines, values ahead:

melting point [°C] | Compound
158 to 160 | CCC(NC(=O)OCc1ccccc1)C(=O)Nc1ccc(-n2nc(C(F)(F)F)cc2C(F)(F)F)cc1 (configuration not stated)
162 to 164 | COC(=O)c1ccccc1S(=O)(=O)NC(=O)Nc1nc(C)cc(OC(F)F)n1
133 to 134 | O=C1CCN(Cc2ccc(O)cc2)CC1C(c1ccccc1)c1ccccc1 (configuration not stated)
131 to 133 | Cc1nc2ccc(Oc3ncccc3C(=O)NCc3ccc(C(C)(C)O)cc3)cc2s1
214 | COc1ccc(S(=O)(=O)C2(C(=O)NO)CCN(Cc3ccc(-c4ccccn4)cc3)CC2)cc1
84 to 85 | CCOCCNC(=O)c1ccc(CN2C(=O)C3(COc4cc5c(cc43)CCO5)c3ccccc32)cc1 (configuration not stated)
219 to 245 | N#Cc1cc(NC(=O)c2cc3ccccc3s2)ccc1N1CCCCC1
248 | CC1(C)CCCN(C(=O)CN(C(=O)CNC(=O)Nc2cccc(CO)c2)c2ccccc2)C1
102 to 103 | CCN(CC)C(=O)c1cc(-c2ccccc2)c2ccccc2c1OC
120 | CC(C)[C@H](NC(=O)OC(C)(C)C)C(=O)Nc1c(C(=O)CC(=O)Nc2nccs2)cccc1C(F)(F)F
112 to 113 | O=C(O)Cc1ccc(OCc2ccccc2)c(OCc2ccccc2)c1
83 to 85 | CC(=Cc1ccccc1)c1ccc2c(c1)C(C)(C)CCC2(C)C
192 to 194 | COC(=O)C1=C(CCc2ccccc2)NC(CC(=O)NCCO)=C(C(=O)OC)C1c1c(Cl)cccc1Cl (configuration not stated)
186 to 187 | O=C(O)C1Cc2cc(-c3ccccc3)ccc2O1 (configuration not stated)
205 to 207 | CN(Cc1ccc(NC(=O)C2=Cc3cc(OCc4ccccc4Cl)ccc3S(=O)(=O)CC2)cc1)C1CCOCC1
141 to 144 | C[C@]1(CN2CCC(NC(=O)OCc3ccc(C(F)(F)F)cc3)CC2)Cn2cc([N+](=O)[O-])nc2O1
151 to 156 | O=C(Nc1ccc(-n2nc(C(F)(F)F)cc2C2CC2)nc1)c1cccc(F)c1F
> 300 | O=Cc1c(NC(Cc2ccccc2)C(=O)O)ncnc1-c1ccc(OCc2ccccc2)cc1 (configuration not stated)
217 to 219 | CC(=O)N1CCN(C(=O)Cn2c(-c3ccc(Cl)cc3)nc3cccnc32)CC1
184 to 193 | CC(CCCc1ccccc1)c1cc2oc(=O)c3c(c2cc1O)CCCC3 (configuration not stated)
122 to 123 | O=S(=O)(Cc1c(C(F)(F)F)nn(-c2ccccc2)c1O)c1ccccc1
210 to 211 | CC(C)(C)c1ccc2oc(C(=O)COc3ccc(C(=O)O)cc3)cc2c1
80 | CC(C)(C)OC(=O)CN(C(=O)CN(C(=O)CN1C(=O)c2ccccc2C1=O)c1ccccc1)c1ccccc1
260 to 261 | Cc1ccc(NC2=C(Cl)C(=O)c3ccccc3C2=O)nc1

melting point [°C] | Compound
116 to 117 | Brc1ccc(OC2CN(C(c3ccccc3)c3ccccc3)C2)cc1
118 to 120 | CN(C)C(=O)C(CCO)C1CCc2c1[nH]c1ccccc21 (configuration not stated)
148 to 150 | CCN(CC)CC1CCCCN1CCNC(=O)N1c2ccc(C)cc2C(=O)Nc2cccnc21 (configuration not stated)
194 to 198 | COC(=O)c1ccc(C=C2Cc3ccccc3C2=O)cc1
143 to 146 | FC(F)(F)C(c1ccc(Cl)cc1)C(Br)c1ccccc1 (configuration not stated)
110 to 115 | O=C(c1ccc2[nH]cnc2c1)N1CCC[C@H](c2nc(-c3ccc(F)cc3)no2)C1
244 to 263 | COc1cc(N(C)C)ccc1Nc1nc(Nc2ccc3c(c2)C(C)(C)CCC(=O)N3C)ncc1Cl
104 to 105 | CCCCCCc1cc2c(cc1C(=O)Oc1ccc(C(=O)O)cn1)C(C)(C)CC2
188 to 190 | CC(C)Oc1ccc(Oc2ccc3c(c2)c(C(=O)O)c(CC(=O)O)n3-c2cccc(Cl)c2)cc1
114 to 116 | O=CNCc1ccc2[nH]cc(CCNC(=O)OCc3ccccc3)c2c1
200 to 202 | Cc1c(F)cccc1C(=O)Nc1ccc(C(=O)N2CCCC(=O)c3sccc32)cc1
171 to 174 | COc1nc(NC(=O)NS(=O)(=O)c2ccccc2C(=O)OCCCl)nc(OC)n1
202 to 203 | CC(C)(C)c1cc(C(=O)Nc2ccccc2C(=O)O)cc(C(C)(C)C)c1O
126 to 127 | Cc1cc2c(cc1C(=O)Cc1ccccc1)CCC2
160 to 162 | CCSc1ccc(C(=O)NCc2ccc3c(c2)C(=O)N(C2(C)CCC(=O)NC2=O)C3=O)nn1 (configuration not stated)
141 to 142 | COc1ccc(CCOc2cccc(-c3cccc(C(N)=O)c3)n2)cc1OC
130 | Cc1nc(C(F)F)ccc1C(=O)C1=C(NS(=O)(=O)c2ccccc2)C(C)(C)C(=O)C(C)(C)C1=O
129 | COc1ccc(C(=O)COc2ccc(C(=O)OCc3ccccc3)c(O)c2)cc1C12CC3CC(CC(C3)C1)C2
194 | CN1C(=O)Cn2c1nc(C(=O)O)c(OCc1ccccc1)c2=O
97 to 98 | COc1ccccc1C(=O)c1cccc(Br)n1
62.5 to 65 | COC(=O)C(Sc1ccccc1)c1ccc(I)cc1 (configuration not stated)
105 to 106 | CCCCc1nc(Cl)c(C(=O)OC(C)C)n1Cc1ccc2oc(-c3ccccc3-c3nnn[nH]3)c(Br)c2c1
105 to 110 | CCOC(=O)N(c1ccccc1)c1cc(Cl)ccc1N=NC(NC(=O)CCl)(C(=O)OCC)C(=O)OCC
100 to 101 | COC(=O)Cc1cc(Br)ccc1OCc1ccc(OCc2nc(-c3ccccc3)oc2C)cc1
